Source: ChEMBL document CHEMBL1201862, “PubChem BioAssay data set” (2004)
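Method: 48-hour compound exposure of cells in 96-well plates, five concentrations, linear interpolation of endpoints. GI50: concentration for 50% inhibition of growth.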 Calls of active or inactive are those of the source. Rule as the data show it: active = GI50 up to about 1.1 µM and inactive = higher.

How the values were obtained:
Assay in all cases: growth of human tumour cells (NCI), 48 h
ACHN = test system: ACHN
CAKI-1 = test system: CAKI-1
COLO 205 = test system: COLO 205
DU-145 = test system: DU-145
EKVX = test system: EKVX
HL-60 = test system: HL-60
K562 = test system: K562
MDA-MB-231 = test system: MDA-MB-231
MDA-N = test system: MDA-N
NCI-H23 = test system: NCI-H23
NCI-H460 = test system: NCI-H460
OVCAR-3 = test system: OVCAR-3
OVCAR-5 = test system: OVCAR-5
OVCAR-8 = test system: OVCAR-8
SF-268 = test system: SF-268
SN12C = test system: SN12C
SR = test system: SR
SW-620 = test system: SW-620
UACC-257 = test system: UACC-257
SNB-75 = test system: SNB-75

Structure (SMILES) | GI50 (ACHN) | GI50 (CAKI-1) | GI50 (COLO 205) | GI50 (DU-145) | GI50 (EKVX) | GI50 (HL-60) | GI50 (K562) | GI50 (MDA-MB-231) | GI50 (MDA-N) | GI50 (NCI-H23) | GI50 (NCI-H460) | GI50 (OVCAR-3) | GI50 (OVCAR-5) | GI50 (OVCAR-8) | GI50 (SF-268) | GI50 (SN12C) | GI50 (SR) | GI50 (SW-620) | GI50 (UACC-257) | GI50 (SNB-75)
COc1ccc2cc(-c3ccc(OC)c(OC)c3)c(=O)oc2c1 | > 100 µM (inactive) | > 100 µM (inactive) | > 100 µM (inactive) | > 100 µM (inactive) | > 100 µM (inactive) | > 100 µM (inactive) | > 100 µM (inactive) | 48.6 µM (inactive) | > 100 µM (inactive) | > 100 µM (inactive) | > 100 µM (inactive) | > 100 µM (inactive) | > 100 µM (inactive) | > 100 µM (inactive) | 62.1 µM (inactive) | > 100 µM (inactive) | > 100 µM (inactive) | > 100 µM (inactive) | > 100 µM (inactive) | –
O=C(Nn1c(-c2ccccc2)nc2ccccc2c1=O)c1ccccc1O | 37.8 µM (inactive) | – | 67.3 µM (inactive) | 49.1 µM (inactive) | > 100 µM (inactive) | 27.8 µM (inactive) | 54 µM (inactive) | 53.5 µM (inactive) | 66.2 µM (inactive) | 34.4 µM (inactive) | 41.8 µM (inactive) | 30.3 µM (inactive) | 49.4 µM (inactive) | 38.5 µM (inactive) | 45.7 µM (inactive) | 37.2 µM (inactive) | 32.8 µM (inactive) | 41.2 µM (inactive) | 45.6 µM (inactive) | > 100 µM (inactive)
O=C1N2CCc3c([nH]c4ccccc34)C23CC2CCCCC12S3 (stereo unspecified) | > 100 µM (inactive) | > 100 µM (inactive) | > 100 µM (inactive) | > 100 µM (inactive) | > 100 µM (inactive) | 95.5 µM (inactive) | 34.6 µM (inactive) | > 100 µM (inactive) | > 100 µM (inactive) | > 100 µM (inactive) | – | > 100 µM (inactive) | > 100 µM (inactive) | > 100 µM (inactive) | > 100 µM (inactive) | > 100 µM (inactive) | 34.5 µM (inactive) | > 100 µM (inactive) | 18.5 µM (inactive) | –
C#CCOCn1cc(C)c(=O)[nH]c1=O | > 100 µM (inactive) | > 100 µM (inactive) | > 100 µM (inactive) | > 100 µM (inactive) | > 100 µM (inactive) | > 100 µM (inactive) | > 100 µM (inactive) | > 100 µM (inactive) | > 100 µM (inactive) | > 100 µM (inactive) | > 100 µM (inactive) | – | > 100 µM (inactive) | > 100 µM (inactive) | > 100 µM (inactive) | > 100 µM (inactive) | > 100 µM (inactive) | > 100 µM (inactive) | > 100 µM (inactive) | > 100 µM (inactive)
COC1/C=C/C(C)C(C(C)C(OC)C(C)CCC(=O)C(C)C(C/C=C/N(C)C=O)OC)OC(=O)C=CC2OC2(C)CC(OC)C(OC)C2=CC(=O)O[C@@H](C(C)C(OC)CC(OC)/C=C/C(C)C(O)C1)[C@H]2O (stereo partly specified) | 0.00313 µM (active) | 0.00267 µM (active) | 0.0016 µM (active) | 0.00938 µM (active) | 0.00562 µM (active) | 0.0109 µM (active) | 0.00277 µM (active) | 0.0032 µM (active) | 0.00471 µM (active) | 0.0239 µM (active) | 0.00607 µM (active) | 0.0108 µM (active) | 0.0105 µM (active) | 0.00853 µM (active) | 0.00451 µM (active) | 0.00593 µM (active) | 0.012 µM (active) | 0.00379 µM (active) | 0.0105 µM (active) | –
CN(C)CCNC(=O)Cn1cc([N+](=O)[O-])c(=O)c2ccccc21 | > 100 µM (inactive) | > 100 µM (inactive) | > 100 µM (inactive) | > 100 µM (inactive) | – | > 100 µM (inactive) | > 100 µM (inactive) | > 100 µM (inactive) | > 100 µM (inactive) | > 100 µM (inactive) | > 100 µM (inactive) | > 100 µM (inactive) | > 100 µM (inactive) | > 100 µM (inactive) | > 100 µM (inactive) | > 100 µM (inactive) | > 100 µM (inactive) | > 100 µM (inactive) | > 100 µM (inactive) | 58.3 µM (inactive)
CCCCCCCCCCCCC(O)C1CCC(C(O)CCCCC(O)CCCCCC2CC(CC(C)=O)C(=O)O2)O1 (stereo unspecified) | 7.85 µM (inactive) | 8.87 µM (inactive) | 3.19 µM (inactive) | 3.86 µM (inactive) | 3.25 µM (inactive) | – | 0.0186 µM (active) | 2.54 µM (inactive) | 1.6 µM (inactive) | < 0.01 µM (active) | 3.77 µM (inactive) | 2.09 µM (inactive) | 8.75 µM (inactive) | 3.44 µM (inactive) | 3.33 µM (inactive) | 4.83 µM (inactive) | 1.34 µM (inactive) | 5.87 µM (inactive) | 0.0204 µM (active) | 3.72 µM (inactive)
C=CCC1(C)CCCN(Cc2ccccc2)C1=O (stereo unspecified) | > 10 µM (inactive) | > 10 µM (inactive) | > 10 µM (inactive) | > 10 µM (inactive) | > 10 µM (inactive) | > 10 µM (inactive) | > 10 µM (inactive) | > 10 µM (inactive) | > 10 µM (inactive) | > 10 µM (inactive) | > 10 µM (inactive) | > 10 µM (inactive) | > 10 µM (inactive) | > 10 µM (inactive) | > 10 µM (inactive) | > 10 µM (inactive) | > 10 µM (inactive) | > 10 µM (inactive) | > 10 µM (inactive) | –
O=C1c2sc(-c3ccc(Cl)cc3)cc2-n2cccc21 | > 100 µM (inactive) | > 100 µM (inactive) | > 100 µM (inactive) | > 100 µM (inactive) | > 100 µM (inactive) | – | > 100 µM (inactive) | > 100 µM (inactive) | > 100 µM (inactive) | – | > 100 µM (inactive) | > 100 µM (inactive) | > 100 µM (inactive) | > 100 µM (inactive) | > 100 µM (inactive) | > 100 µM (inactive) | > 100 µM (inactive) | > 100 µM (inactive) | > 100 µM (inactive) | > 100 µM (inactive)
Cc1cc2ccccc2n1CC(=O)N1CCCC1 | > 100 µM (inactive) | – | > 100 µM (inactive) | > 100 µM (inactive) | > 100 µM (inactive) | > 100 µM (inactive) | > 100 µM (inactive) | > 100 µM (inactive) | > 100 µM (inactive) | > 100 µM (inactive) | > 100 µM (inactive) | > 100 µM (inactive) | > 100 µM (inactive) | > 100 µM (inactive) | > 100 µM (inactive) | > 100 µM (inactive) | > 100 µM (inactive) | > 100 µM (inactive) | > 100 µM (inactive) | > 100 µM (inactive)
COc1ccc(C2C(C#N)=C(S)N(C3OC(CO)C(O)C(O)C3O)C(C)=C2C(C)=O)cc1 (stereo unspecified) | > 100 µM (inactive) | – | > 100 µM (inactive) | > 100 µM (inactive) | – | 58.7 µM (inactive) | 59.4 µM (inactive) | > 100 µM (inactive) | 72.3 µM (inactive) | > 100 µM (inactive) | > 100 µM (inactive) | 47.3 µM (inactive) | > 100 µM (inactive) | > 100 µM (inactive) | > 100 µM (inactive) | > 100 µM (inactive) | 56.9 µM (inactive) | > 100 µM (inactive) | > 100 µM (inactive) | 42.7 µM (inactive)
CC(=S)N/C=C1/C(=O)C=C(C)OC1=O | > 100 µM (inactive) | > 100 µM (inactive) | > 100 µM (inactive) | > 100 µM (inactive) | > 100 µM (inactive) | > 100 µM (inactive) | > 100 µM (inactive) | > 100 µM (inactive) | > 100 µM (inactive) | > 100 µM (inactive) | > 100 µM (inactive) | > 100 µM (inactive) | > 100 µM (inactive) | > 100 µM (inactive) | > 100 µM (inactive) | > 100 µM (inactive) | – | > 100 µM (inactive) | > 100 µM (inactive) | 54.3 µM (inactive)
COc1ccc(NC(=O)NNS(=O)(=O)c2ccc(C)cc2)cc1 | 91.6 µM (inactive) | > 100 µM (inactive) | > 100 µM (inactive) | > 100 µM (inactive) | > 100 µM (inactive) | > 100 µM (inactive) | > 100 µM (inactive) | > 100 µM (inactive) | 32.7 µM (inactive) | 52.8 µM (inactive) | > 100 µM (inactive) | – | > 100 µM (inactive) | > 100 µM (inactive) | > 100 µM (inactive) | > 100 µM (inactive) | 63 µM (inactive) | > 100 µM (inactive) | > 100 µM (inactive) | 29.4 µM (inactive)
CCN(CCN(CC)C(=O)NC)C(=O)NC | > 100 µM (inactive) | – | > 100 µM (inactive) | > 100 µM (inactive) | > 100 µM (inactive) | > 100 µM (inactive) | > 100 µM (inactive) | > 100 µM (inactive) | > 100 µM (inactive) | > 100 µM (inactive) | > 100 µM (inactive) | – | > 100 µM (inactive) | > 100 µM (inactive) | > 100 µM (inactive) | > 100 µM (inactive) | > 100 µM (inactive) | > 100 µM (inactive) | > 100 µM (inactive) | > 100 µM (inactive)
O=c1c(O)c(-c2ccc(O)cc2O)oc2cc(O)cc(O)c12 [MORIN] | > 100 µM (inactive) | > 100 µM (inactive) | > 100 µM (inactive) | > 100 µM (inactive) | 30.3 µM (inactive) | > 100 µM (inactive) | > 100 µM (inactive) | > 100 µM (inactive) | > 100 µM (inactive) | > 100 µM (inactive) | > 100 µM (inactive) | > 100 µM (inactive) | > 100 µM (inactive) | > 100 µM (inactive) | > 100 µM (inactive) | > 100 µM (inactive) | – | > 100 µM (inactive) | > 100 µM (inactive) | > 100 µM (inactive)
